Measurements taken from patent publication US20130053310A1 (NOVO NORDISK A/S, priority 2010, published 2013).
Entries after “also recorded” stand apart in the source; their conditions may differ.

Assays:
[1] = Assay (II) ThT fibrillation assay for physical stability; assay type: physicochemical; conditions: 250 μM in 1 μM ThT, 10 mM glycylglycine buffer pH 4.0, 45 hours at 37° C., shaking 960 rpm
Description: This has traditionally been measured by visual inspection of the sample. However, that kind of measurement is very subjective and depending on the observer. Therefore, the application of a small molecule indicator probe is much more advantageous.
Here, F is the ThT fluorescence at the time t. The constant t0 is the time needed to reach 50% of maximum fluorescence.
Few of those intermediates nucleate to form a template onto which further intermediates may assembly and the fibrillation proceeds. The lag-time corresponds to the interval in which the critical mass of nucleus is built up and the apparent rate constant is the rate with which the fibril itself is formed.
Samples were prepared freshly before each assay. […] The pH of the sample was adjusted to the desired value using appropriate amounts of concentrated NaOH and HCl. Thioflavin T was added to the samples from a stock solution in H2O to a final concentration of 1 μM.
The plate was sealed with Scotch Pad (Qiagen).
Each run was initiated by incubating the plate at the assay temperature for 10 min. The plate was measured every 20 minutes for a desired period of time. Between each measurement, the plate was shaken and heated as described.
The supernatant was filtered through a 0.22 μm filter and an aliquot was transferred to a HPLC vial.
The measurement points were saved in Microsoft Excel format for further processing and curve drawing and fitting was performed using GraphPad Prism.
The data set may be fitted to Eq. (1).

glucagon receptor = molecular target: T1, glucagon receptor (Homo sapiens, UniProt P47871); assay: Assay (I) Glucagon activity: cAMP biosensor (ACTOne) FLIPR assay in HEK-293 cells with cloned glucagon receptor; assay type: cell-based
T1 construct: expressed in transfected cells
Description: The cells (14000 per well) were incubated (37° C., 5% CO2) overnight in 384-well plates. Next day the cells were loaded with a calcium responsive dye that only distributed into the cytoplasm. Probenecid, an inhibitor of the organic anion transporter, was added to prevent the dye from leaving the cell. A PDE inhibitor was added to prevent formatted cAMP from being degraded. […] End point data were collected after 6 minutes. An increase in intracellular cAMP was proportional to an increased in calcium concentrations in the cytoplasm. When calcium was bound the dry a fluorescence signal was generated. EC50-values were calculated in Prism5.

T1 sequence (P47871 26-477): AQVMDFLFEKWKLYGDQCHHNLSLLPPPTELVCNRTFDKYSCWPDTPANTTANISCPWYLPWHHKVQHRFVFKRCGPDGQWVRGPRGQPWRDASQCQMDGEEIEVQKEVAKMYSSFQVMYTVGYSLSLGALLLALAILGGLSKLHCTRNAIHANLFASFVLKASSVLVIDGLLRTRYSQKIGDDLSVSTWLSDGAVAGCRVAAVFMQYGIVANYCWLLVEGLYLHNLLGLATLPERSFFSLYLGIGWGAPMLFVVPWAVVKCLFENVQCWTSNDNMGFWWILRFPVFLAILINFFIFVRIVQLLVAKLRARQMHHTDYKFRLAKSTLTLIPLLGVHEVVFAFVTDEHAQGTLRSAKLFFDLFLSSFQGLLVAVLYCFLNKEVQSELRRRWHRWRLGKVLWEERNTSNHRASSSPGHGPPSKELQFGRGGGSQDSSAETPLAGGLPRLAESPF

## CC(C)C[C@H](NC(=O)[C@H](Cc1ccc(O)cc1)NC(=O)[C@H](CCCCN)NC(=O)[C@H](CO)NC(=O)[C@H](Cc1ccc(O)cc1)NC(=O)[C@H](CC(=O)O)NC(=O)[C@H](CO)NC(=O)[C@@H](NC(=O)[C@H](Cc1ccccc1)NC(=O)[C@@H](NC(=O)CNC(=O)[C@H](CCC(N)=O)NC(=O)[C@H](CO)NC(=O)[C@@H](N)Cc1c[nH]cn1)[C@@H](C)O)[C@@H](C)O)C(=O)N[C@@H](CC(=O)O)C(=O)N[C@@H](CO)C(=O)N[C@@H](CCCNC(=N)N)C(=O)N[C@@H](CCCNC(=N)N)C(=O)N[C@@H](C)C(=O)N[C@@H](CCC(N)=O)C(=O)N[C@@H](CCC(=O)O)C(=O)N[C@@H](Cc1ccccc1)C(=O)N[C@H](C(=O)N[C@@H](CCC(N)=O)C(=O)N[C@@H](CCCNC(=N)N)C(=O)N[C@@H](CC(C)C)C(=O)N[C@@H](CC(C)C)C(=O)N[C@@H](CC(N)=O)C(=O)N[C@H](C(=O)O)[C@@H](C)O)C(C)C [Example 1, [Glu^21, Arg^25, Leu^27]Glucagon]
[1]
  ThT emission / fibrillation upon physical stress: does not fibrillate; also recorded: no ThT emission occurred
Glucagon receptor
  EC50: 0.017 nM
